Results published in patent US20250009731A1, “TOLL-LIKE RECEPTOR THERAPY COMBINATIONS WITH CBL-B INHIBITOR COMPOUNDS” (NURIX THERAPEUTICS, INC., priority 2021, published 2025).

Assays:
4T1 tumors [1] = assay: 4T1 triple negative mammary carcinoma metastatic model with primary tumor resection, survival; type: in vivo, mice; settings: oral 30 mg/kg daily
Excerpt: Another in vivo study evaluated the ability of Compound 23 treatment, started before the primary tumor resection, to eradicate 4T1 breast carcinoma metastatic disease. The 4T1 triple negative mammary carcinoma is a transplantable tumor cell line that is highly tumorigenic and invasive and, unlike most tumor models, spontaneously metastasizes from a primary tumor growing in the mammary gland to multiple distant sites including lymph nodes, blood, liver, lung, brain, and bone. Tumor cells are easily transplanted into the mammary glands so that the primary tumor grows in the anatomically relevant site. The progressive spread of 4T1 metastases to other organs is very similar to that of human mammary cancer. Animals die from disseminated metastatic disease regardless of resection of the primary tumor (Pulaski et al., 2000, Current Protocols in Immunology 39(1):20.2.1-20.2.16). […] Beginning on Day 7, tumor volumes were measured twice weekly until they reached a mean tumor volume of 145 mm^3 when the primary tumors were resected on Day 14 or 15 (dotted line). Median survival times were calculated for each group and body weights were monitored until the end of the study on Day 140. Body weights were measured twice weekly then once weekly starting Day 47. […] Statistical significance of differences in conditional survival between groups was evaluated using the Log-rank (Mantel-Cox) test. […] Median survival is reported as undefined for the Compound 23 group, as survival exceeds 50% at Day 140.

CT26 tumors [2] = assay: CT26 tumor model with depleting antibodies for CD4+, CD8+ or NK cells; type: in vivo, mice; settings: 30 mg/kg PO QD Day 9 to Day 25; tumor volume at Day 25
Excerpt: Tumor volume at Day 25 is indicated. CD8+ T-cell or NK cell depletion abrogates Compound 23 activity. Stats calculated with Mann-Whitney (Vehicle vs. Compound 23) or one-way ANOVA with Dunn's multiple comparisons test (Compound 23 vs. Depletion groups); * P≤0.05, ** P≤0.01, **** P≤0.0001 The efficacy of Compound 23 on tumors is linked to CD8+ T function and on NK cell function.

[3] = system: total primary human T-cells; assay: IL-2 and IFN-γ release by stimulated total primary human T-cells (ELISA); type: cell-based; settings: plate bound anti-CD3, with and without CD28 co-stimulation, lesser degree without co-stimulation
Method: Cells were stimulated with plate bound anti-CD3 (right) or anti-CD3/anti-CD28 (left) in presence or absence of the indicated concentration of Compound 23. Release of IL-2 or IFN-γ were assessed by ELISA. Compound 23 inhibition of Cbl-b enhanced IL-2 and IFN-γ secretion in primary human T cells stimulated with anti-CD3 antibodies, in both the presence and absence of CD28 co-stimulation, although to a lesser degree in the absence of co-stimulation.

4T1 tumors [4] = assay: Flow cytometry of tumor and blood from orthotopic 4T1 tumor-bearing mice; type: in vivo
Excerpt: Tumor and blood samples were harvested on Day 28 and analyzed by Flow Cytometry.

CT26 tumors [5] = assay: nCounter Mouse PanCancer Immune Profiling Panel gene expression in CT26 tumors; type: in vivo, mice; settings: vs vehicle
Excerpt: In this example, the gene expression changes induced in tumors from mice treated with Compound 23 studies were as investigated. To perform this assessment, the nCounter PanCancer Immune Profiling Panel was used, which is a multiplexed gene expression panel developed by NanoString Technologies that measures expression of 770 immune and cancer related genes (Eastel et al., 2019, Expert Review of Molecular Diagnostics, 19(7):591-598). This technology is a unique gene expression tool that covers many important features of the immune response in the tumor microenvironment and was used to facilitate the understanding of immune related changes in tumors treated with Compound 23.
In FIG. 4A, CT26 tumors were harvested after 4 doses and after 19 doses of Compound 23 or vehicle and gene expression was directly measured using the nCounter Mouse PanCancer Immune Profiling Panel. Analysis was performed using the nSolver 4.0 and the nCounter Advanced Analysis software comparing gene expression in Compound 23 to vehicle treated tumors. […] Statistical significance of differences in mean cell type scores between Compound 23 and vehicle treated groups was evaluated using Mann-Whitney test (* P≤0.05, ** P≤0.01, and *** P≤0.001).
(§1) In FIG. 4B, CT26 tumors were harvested after 4 treatment doses and gene expression was directly measured using the nCounter Mouse PanCancer Immune Profiling Panel. Analysis was performed using the nSolver 4.0 and the nCounter Advanced Analysis software comparing gene expression in Compound 23 to vehicle treated tumors. As indicated in the titles above each panel, scatter plots of individual Pathway Signature Scores of vehicle and Compound 23 treated tumors are shown. Statistical significance of differences in Pathway Signature Scores between Compound 23 and vehicle treated groups was evaluated using Mann-Whitney test (* P≤0.05, ** P≤0.01, and *** P≤0.001).
as §1, with “FIG. 4C,” for “FIG. 4B,”, “after 19” for “after 4”

CT26 tumors [6] = assay: CT26 colon carcinoma tumor model, tumor volume; type: in vivo, mice; settings: oral 10 mg/kg or 30 mg/kg, Day 7 to Day 32; tumor volume at Day 25
Method: Mice bearing tumors on their left and right flanks were treated from Day 7 to Day 32 with oral Compound 23 at 10 mg/kg or 30 mg/kg or vehicle. Volumes at Day 25 are indicated. Statistics were calculated with one-way ANOVA and Dunn's multiple comparisons test ** P<0.01.

CT26 tumors [7] = assay: Flow cytometry of tumor-infiltrating immune cells in CT26 tumors; type: in vivo, mice; settings: 30 mg/kg daily PO, 19 doses
Method: CT26 tumors were harvested after 19 doses of Compound 23 or vehicle and tumor-infiltrating immune cell density and phenotype was assessed by Flow Cytometry.

## C[C@H]1CCCN(Cc2cc3c(c(C(F)(F)F)c2)CN(c2cccc([C@]4(c5nncn5C)C[C@@H](C)C4)c2)C3=O)C1 [Compound 23]
4T1 tumors [1]
  survival at Day 140: exceeds 50%
4T1 tumors [1]; Day 8 to Day 46
  anti-tumor activity, metastatic triple negative breast tumor model 4T1: significant anti-tumor activity
4T1 tumors [1]; Day 8 to Day 46, primary tumor resected Day 14 or 15, Log-rank test
  median survival time compared to vehicle control: significantly increased
4T1 tumors [1]; Day 140
  mice that remained tumor free until the end of the study: 54%
4T1 tumors [1]; study end Day 140
  median survival: undefined
CT26 tumors [2]
  effect of CD8+ T-cell depletion on antitumor activity: abrogates
  effect of NK cell depletion (anti-asialo-GM1) on antitumor activity: abrogates
[3]
  IFN-γ secretion: enhanced
  IL-2 secretion: enhanced
4T1 tumors [4]; 30 mg/kg daily PO Day 9 to Day 28, FIG. 6A
  frequency of tumor gp70 antigen-specific CD8+ T-cells (AH1 Dextramer+ CD8+ T-cells) in 4T1 tumors: increased
4T1 tumors [4]; 30 mg/kg daily PO Day 9 to Day 28, FIG. 6B
  frequency of gp70 antigen-specific CD8+ T-cells with exhaustion phenotype (PD-1+ LAG3+) in 4T1 tumors: decreased
4T1 tumors [4]; 30 mg/kg daily PO Day 9 to Day 28, FIG. 6C
  frequency of circulating CD8+ T-cells with activated phenotype (PD-1+) in blood: increased
4T1 tumors [4]; 30 mg/kg daily PO Day 9 to Day 28, FIG. 6D
  frequency of circulating CD8+ T-cells with memory phenotype (CD44+CD27+CD127+) in blood: increased
CT26 tumors [5]; after 4 doses, oral 30 mg/kg daily, P=0.1061
  cytotoxic cells score: clear trend of increased infiltration
CT26 tumors [5]; after 4 doses, oral 30 mg/kg daily, P=0.6679
  tumor infiltrating lymphocytes (TIL) score: clear trend of increased infiltration
CT26 tumors [5]; after 4 doses, oral 30 mg/kg daily, P=0.7551
  T-cell score: clear trend of increased infiltration
CT26 tumors [5]; after 4 doses
  pathway scores of innate immune signaling: dendritic cell function, macrophage function, chemokine receptors and pathways: significant gene expression changes
CT26 tumors [5]; after 4 doses, trend for increases
  pathway scores of T-cell, B cell, NK cell and adaptive immune function: not significant
CT26 tumors [5]; after 19 doses, oral, P=0.0002
  cytotoxic cell score: significant increases
CT26 tumors [5]; after 19 doses, oral, P=0.0044
  tumor infiltrating lymphocytes (TIL) score: significant increases
CT26 tumors [5]; after 19 doses, oral, P=0.0098
  T-cell score: significant increases
CT26 tumors [5]; after 19 doses
  immune related pathway scores: dendritic cell, macrophage, T-cell, NK cell, B cell, interferon function, adaptive immunity, chemokine and receptor, cytokine and receptor: significantly enhanced function
CT26 tumors [6]
  anti-tumor activity, CT26 colon carcinoma model: significant anti-tumor activity
CT26 tumors [7]; FIG. 7A
  number of tumor-infiltrating leukocytes (TIL) per gram of tumor: increased
CT26 tumors [7]; FIG. 7B
  frequency of total CD3+ T cells as a percentage of CD45+ leukocytes: increased
CT26 tumors [7]; FIG. 7C
  frequency of total CD8+ T cells as a percentage of CD45+ leukocytes: increased
CT26 tumors [7]; FIG. 7D
  number of total CD8+ T-cells per gram of tumor: increased
CT26 tumors [7]; FIG. 7E
  frequency of CD8+ T-cells that express the activation marker CD29 (CD29+): increased
CT26 tumors [7]; FIG. 7F
  CD8+ T-cells to Tregs ratio: increased
CT26 tumors [7]; FIG. 7G
  CD8+ effector T-cells (PD1+) to Tregs ratio: increased
CT26 tumors [7]; FIG. 7H
  frequency of activated NK cells (CD11b+) that express Granzyme+: increased
CT26 tumors [7]; FIG. 7I
  frequency of activated NK cells (CD27+CD11 b+) that express Granzyme+: increased
